One compound from patent US20210299150A1, “AP39 IMPACT ON MITOCHONDRIA, METABOLISM, GENE TRANSCRIPTION REGULATION, CARDIOTOXICITY PROTECTION AND CANCER TREATMENT” (priority 2020, published 2021) can be followed below.

Series [1] deals with H9C2 cells. Briefly: Mitochondrial H2S levels (AzMAC) and morphology (mitotracker Red) in H9C2 cells. The class given is cell-based, Rat. An excerpt: Note that white arrow heads and yellow arrows compare and contrast no-H2S: fusion and H2S-presence: fission scenarios in the same image AP39 treatment lane.
Mitochondrial fission was correlated with H2S levels. To investigate the impact of Dox on mitochondrial biogenesis and mitochondrial H2S levels, H9C2 cells were used in combination with H2S sensitive dye AzMAC and mitotracker Red dye as reported previously^8. […] Further, H2S levels (yellow arrows) highly correlated with a dotted appearance of mitochondria, implying that H2S causes mitochondrial fission, which is a prerequisite for eliminating damaged mitochondria^49.

The subject of series [2] is hiPSC-CMs. Briefly: DIC in hiPSC-CMs (Annexin V, MitoSox Red). The class given is cell-based, human.
Series [3] deals with SK-N-BE(2) neuroblastoma cell line. Description: Cell viability (images, MTT) of SK-N-BE(2) neuroblastoma cell line. The class given is cell-based, human. The procedure: (§1) Methods for cell viability: Cells were plated in 96 wells/6 wells cell culture plates. After 24 hrs of plating, the treatments (added in the growth medium) were conducted. The following assays were performed after 24 hrs of the treatments (day 2). (FIGS. 15A, 17-20, 24-27)
(§2) MTT assay methods. For the MTT assay, […] of 5 mg/ml MTT-tetrazolium salts in PBS was added to each well containing the growth medium. After 3 hours of incubation, the medium was removed and the formazan crystals were dissolved by adding DMSO. The absorption of the formazan solution was measured using a spectrophotometer at a wavelength of 570 nm. FIGS. 15B, 21-22.
The SK-N-BE(2) neuroblastoma cell line was exposed to control, AP39 (AP) at 40 or 60 μM, Doxorubicin at 2.5 or 20 μM, thiolactate at 10 mM, AP39 and Doxorubicin, AP39 and thiolactate, or Doxorubicin and Thiolactate. […] FIGS. 17, 21, 24-25.

The subject of series [4] is Myc/Max-regulated transcripts. Briefly: RNAseq analysis in H9C2 cell line. The class given is cell-based, Rat. The procedure:
The coverage among groups are indicated.
Next, to interrogate mechanisms of AP39 protection against DIC, RNAseq analysis was performed. There was sufficient coverage of the whole transcriptome among the groups (FIG. 8A).

A short description of series [5]: Oxygen Consumption Rate (OCR). Type of series: cell-based. The settings on record: AP39, not significantly different in the presence of Dox. An excerpt: AP39 enhanced AMPK activation (A and B) and produced shorter isoform of Opa1, i.e. no longer isoform of Opa1. Oxygen consumption rates (OCR) with different treatments. […] Note AMPK substrate ACC phosphorylation.
It is possible that AP39 relies mostly on increased energy efficiency rather than on improving OCR after Dox treatment.

The test system of series [6] is cleaved caspase 3 and PARP, phospho ERK1/2 and phospho p38. Briefly: Western blot of apoptotic markers and stress signaling in H9C2. The settings on record: H9C2, AP39 with Dox vs Dox only. The class given is cell-based, Rat. The procedure: AP39 treatment also ameliorated Dox toxicity in a model of Rat cardiomyoblast cell line, H9C2. […] There was a narrow window of protection, as 30 μM and 50 μm doses were not as strong as the 40 μM dose (FIGS. 5A and B) in conferring protection. […] Note that Dox caused an apoptotic phenotype in correlation with ROS levels (FIG. 5F, Dox lane). This in vitro AP39 protection is modest when compared to the in vivo scenario. This difference may be due to rapid clearance of toxic metabolites (for instance, higher lactate production, FIG. 10D) and better oxygen supply (AP39 stimulated OCR, FIG. 7C) in vivo and lack of such sophistication in vitro.
For orientation: Immunoblotting shows a protein as a band on a membrane.

In series [7] the test system is A549 lung cancer cells. Description: Cell viability of A549 lung cancer cells. The class given is cell-based. The procedure:
as §1, §2
A549 lung cancer cells were exposed to control, AP39 (AP) at 40 or 60 μM, Doxorubicin at 2.5 or 20 μM, thiolactate at 10 mM, AP39 and Doxorubicin, AP39 and thiolactate, or Doxorubicin and Thiolactate. […] FIGS. 19 and 21.

Where [8] appears, read: AP39 40 or 60 μM, thiolactate 10 mM, 24 hrs.
[9] abbreviates: combination with Doxorubicin 2.5 μM.

Each structure is given as a SMILES string.

`O=C(CCCCCCCCC[P+](c1ccccc1)(c1ccccc1)c1ccccc1)Oc1ccc(-c2cc(=S)ss2)cc1.[Br-]` [AP39]: the Dox-mediated mitochondrial fusion entry in series [1] (H9C2, AP39 with Dox) is “reversed after AP39 treatment”. In addition, the “mitochondrial H2S levels (AzMAC)” value in series [1] (H9C2, single agent vs control) is “H2S production enhancement”. Further, the “mitochondrial morphology (fission / fusion)” value in series [1] (H9C2, single agent vs control) is “increased mitochondrial fission”. Moreover, the “DIC in hiPSC-CMs” value in series [2] (4 μM AP39 with 7.5 μM Dox, 48 hrs) was “attenuated DIC”. Also, the “tolerance of hiPSC-CMs to AP39” value in series [2] (40 μM AP39, compared with H9C2 cells) is on record as “greater susceptibility”. The “level of apoptosis (Annexin V) and mitochondrial ROS (MitoSox Red)” value in series [2] (hiPSC-CMs, AP39 with Dox) is recorded as “attenuated with AP39 treatment”. Further, the “cell killing, agent alone” value is given as “able to kill SK-N-BE(2) cells” in series [3] (setting [8]) and “able to kill lung cancer cells” in series [7] (setting [8]). Moreover, the “potency of low doses of Doxorubicin” value in series [3] (setting [9]) and in series [7] (setting [9]) was “able to increase the potency of low doses of Doxorubicin” in each case. In series [3] (vs original IC70), the “reduction of Dox IC value by AP39” value is given as roughly 8 fold. In addition, the “abnormal transcriptional changes induced after Dox treatment, global level (RNAseq)” value in series [4] (H9C2, AP39+Dox) was “significantly reversed abnormal transcriptional changes”. Moreover, the Myc transcription result in series [4] (H9C2, AP39 with Dox) is “restored Myc transcription”. In series [5], the “Oxygen Consumption Rate (OCR)” value is on record as “suppressed OCR”. Moreover, the “PARP and caspase 3 cleavage” value in series [6] was “significantly reduced PARP and caspase 3 cleavage”. In series [6], the “stress signaling (activated ERK1/2 and p38 kinases)” value was “reduced stress signaling”.
